# Test results as given in patent US20140100419A1, “ACTIVE VITAMIN D OR ANALOGS THEREOF FOR USE IN IN VIVO OR IN VITRO FERTILIZATION” (priority 2011, published 2014).
# Assays:
# [1] = tested on: zona pellucida (ZP) of human oocytes; experiment: Human sperm-zona pellucida interaction (sperm-egg binding) test; assay type: cell-based; settings: 10 nM JN
# From the text: We used the Human sperm-zona pellucida interaction test that is designed to determine the capacity of sperm to interact with the zona pellucida (ZP) of human oocytes and serves thus as a test for evaluating fertility potential of human spermatozoa. The tests provide important diagnostic information about sperm fertilising ability and we used a modified version of the test developed by Liu and Baker (Liu and Baker hum reprod 1999 Defective sperm-zona pellucida interaction: a major cause of failure of fertilization in clinical in-vitro fertilization).
# If the oocyte had sperm bound to the ZP from the IVF insemination, these were removed by aspiration using a fine glass pipette with an inner diameter (120 μm) slightly smaller than the oocyte diameter. […] Oocytes with >10 sperm penetrating the ZP were not used. Also degenerate, activated or morphologically abnormal oocytes were not used for the sperm-ZP interaction test. Oocytes were pooled from several patients and used for the test on the same day or kept in the incubator and used within the next 20 days. Between 15-30 oocytes was placed in 1 ml salt solution (storage 2-4 weeks). Salt-stored human oocytes were washed with gamete buffer (COOK) with four changes in 3 hours before they were used for the sperm-egg binding test.
# Semen samples from five donors were used. […] The washed sperm pellet was resuspended with sEBSS to a sperm concentration of 2×10^6/ml for the ZP-interaction test. For the assessment of the sperm concentration the samples were diluted following the manufactures instruction and subsequently determined using SP-100 (Chemometec).
# For the sperm-ZP interaction tests, either high quality sperm or total sperm sample (2×10^6) in 0.5 ml of medium (+/−1 nM Calcitriol) were incubated with three oocytes for 2 h at 37° C. in 5% CO2 in air. After incubation, the oocytes were transferred to sEBSS and washed by repeated aspiration with a glass pipette (inside diameter approximately 250 μm) to dislodge sperm loosely adhering to the surface of the ZP. Sperm binding to all oocytes was assessed.
# human spermatozoa = experiment: Sperm motility of washed spermatozoa with or without percoll gradient centrifugation; assay type: cell-based; settings: 10 nM JN
# VDR-ap = target: T1, VDR-ap (Homo sapiens, UniProt P11473); settings: cited from earlier work
# T1 sequence (P11473 1-427): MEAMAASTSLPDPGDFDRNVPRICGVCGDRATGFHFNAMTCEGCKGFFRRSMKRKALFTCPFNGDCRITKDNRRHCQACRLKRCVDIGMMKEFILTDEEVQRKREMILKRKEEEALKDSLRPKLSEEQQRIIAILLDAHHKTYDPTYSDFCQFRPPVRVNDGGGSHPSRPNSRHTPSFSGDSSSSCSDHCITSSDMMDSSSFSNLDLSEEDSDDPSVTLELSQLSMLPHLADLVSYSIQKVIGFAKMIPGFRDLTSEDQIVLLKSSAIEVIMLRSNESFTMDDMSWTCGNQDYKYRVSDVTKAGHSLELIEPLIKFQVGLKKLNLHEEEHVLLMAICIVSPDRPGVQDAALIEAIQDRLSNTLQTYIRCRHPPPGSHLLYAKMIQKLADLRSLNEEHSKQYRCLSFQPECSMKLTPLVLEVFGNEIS
smiles,measurement,setting,value
"C[C@H](CCCC(C)(C)O)[C@H]1CC[C@H]2C3=CC=C4C[C@@H](O)C[C@H](O)[C@@]4(C)[C@@H]3CC[C@]12C [JN, 1α,25(OH)2-lumisterol]",mean number of spermatozoa bound to each oocyte,[1]; 1 donor (vehicle mean 37),65
same,difference in sperm-egg binding versus vehicle,[1]; separated by percoll gradient centrifugation,300%
same,average improvement of sperm-egg binding versus vehicle,[1]; without percoll gradient centrifugation,11%
same,motile sperm,"human spermatozoa; 60 minutes, isolated by percoll gradient centrifugation (from 69%)",72%
same,sperm motility (mean),"human spermatozoa; 60 minutes, no percoll centrifugation (vehicle mean 34)",46
same,change in proportion of motile sperm,"human spermatozoa; 24 hours at room temperature, with and without percoll, not substantially different from vehicle",modest decrease
same,affinity for VDR-ap,VDR-ap,"same affinity as 1,25(OH)2D3"
